Measured values published in ChEMBL document CHEMBL1147983.

Experiments:
[1] = target: Epidermal growth factor receptor (Homo sapiens, UniProt P00533); assay: Inhibition of EGFR
Aurora kinase A = target: T1, Aurora kinase A (Homo sapiens, UniProt O14965)
T1 sequence (O14965 whole entry): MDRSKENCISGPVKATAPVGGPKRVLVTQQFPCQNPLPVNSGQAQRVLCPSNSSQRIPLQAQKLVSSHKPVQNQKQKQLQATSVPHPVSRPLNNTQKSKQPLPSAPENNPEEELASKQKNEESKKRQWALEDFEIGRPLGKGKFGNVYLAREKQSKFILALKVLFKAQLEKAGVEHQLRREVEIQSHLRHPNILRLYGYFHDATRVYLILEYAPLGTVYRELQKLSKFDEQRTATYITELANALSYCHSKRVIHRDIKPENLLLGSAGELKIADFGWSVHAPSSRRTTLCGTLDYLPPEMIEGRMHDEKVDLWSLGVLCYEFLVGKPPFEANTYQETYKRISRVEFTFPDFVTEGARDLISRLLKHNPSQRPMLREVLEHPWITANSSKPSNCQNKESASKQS

Chain of Epidermal growth factor receptor (P00533 whole entry): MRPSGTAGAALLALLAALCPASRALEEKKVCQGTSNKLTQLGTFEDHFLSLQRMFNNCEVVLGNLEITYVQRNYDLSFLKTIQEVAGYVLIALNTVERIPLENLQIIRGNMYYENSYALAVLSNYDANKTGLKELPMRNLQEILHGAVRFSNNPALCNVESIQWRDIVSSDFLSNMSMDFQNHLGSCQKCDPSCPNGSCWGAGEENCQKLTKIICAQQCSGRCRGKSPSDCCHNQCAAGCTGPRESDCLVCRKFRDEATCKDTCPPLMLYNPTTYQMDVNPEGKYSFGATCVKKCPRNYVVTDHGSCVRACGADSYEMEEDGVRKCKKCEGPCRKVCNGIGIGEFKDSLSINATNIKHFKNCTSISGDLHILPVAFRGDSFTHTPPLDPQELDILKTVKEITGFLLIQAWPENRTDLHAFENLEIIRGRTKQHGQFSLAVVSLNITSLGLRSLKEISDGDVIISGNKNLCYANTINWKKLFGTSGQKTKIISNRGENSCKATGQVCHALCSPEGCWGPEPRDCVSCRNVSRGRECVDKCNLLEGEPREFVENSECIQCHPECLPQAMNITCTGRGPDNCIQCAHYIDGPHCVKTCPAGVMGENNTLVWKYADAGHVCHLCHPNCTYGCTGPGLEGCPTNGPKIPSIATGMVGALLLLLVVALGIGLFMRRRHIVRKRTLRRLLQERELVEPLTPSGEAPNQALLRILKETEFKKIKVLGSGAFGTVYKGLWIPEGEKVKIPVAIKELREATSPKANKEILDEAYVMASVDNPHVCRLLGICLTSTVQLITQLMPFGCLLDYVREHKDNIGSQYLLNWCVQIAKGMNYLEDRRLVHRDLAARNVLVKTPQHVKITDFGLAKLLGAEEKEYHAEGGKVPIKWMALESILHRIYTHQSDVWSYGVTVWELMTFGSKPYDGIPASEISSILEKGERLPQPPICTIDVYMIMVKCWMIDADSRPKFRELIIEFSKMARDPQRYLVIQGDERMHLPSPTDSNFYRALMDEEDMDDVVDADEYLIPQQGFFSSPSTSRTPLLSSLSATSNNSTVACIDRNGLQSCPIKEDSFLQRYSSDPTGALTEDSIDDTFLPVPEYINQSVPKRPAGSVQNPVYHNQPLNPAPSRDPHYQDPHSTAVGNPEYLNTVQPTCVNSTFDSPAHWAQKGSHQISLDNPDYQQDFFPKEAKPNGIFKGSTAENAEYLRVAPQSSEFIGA

Compound | IC50 [1] [µM] | IC50 (Aurora kinase A) [µM]
O=C(Nc1cccc(Nc2nccc(Nc3cccc(C(F)(F)F)c3)n2)c1)C1CC1 [ANILINOPYRIMIDINE1] | > 10 | –
O=C(Nc1cccc(Nc2cc(Nc3cccc(C(F)(F)F)c3)ncn2)c1)C1CC1 | 0.021 | > 10
O=C(Nc1cccc(Nc2ccnc(Nc3cccc(C(F)(F)F)c3)n2)c1)C1CC1 | > 10 | 0.931
